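Compound exposure: 48 hours, 5 concentrations, 96-well plates. Definition used: TGI = concentration required for complete inhibition of growth.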
How the values were obtained:
Assay in all cases: DTP human tumour cell line panel, 48 h
MCF7 breast = test system: MCF7 breast
MDA-MB-231 breast = test system: MDA-MB-231 breast
U251 CNS = test system: U251 CNS
SN12C renal = test system: SN12C renal
HS 578T breast = test system: HS 578T breast
HOP-62 NSCLC = test system: HOP-62 NSCLC
OVCAR-5 ovarian = test system: OVCAR-5 ovarian
NCI-H23 lung = test system: NCI-H23 lung
HT29 colon = test system: HT29 colon
ACHN renal = test system: ACHN renal
OVCAR-4 ovarian = test system: OVCAR-4 ovarian
RXF 393 renal = test system: RXF 393 renal
NCI/ADR-RES ovarian = test system: NCI/ADR-RES ovarian
SK-OV-3 ovarian = test system: SK-OV-3 ovarian
HL-60(TB) leukemia = test system: HL-60(TB) leukemia
UACC-257 melanoma = test system: UACC-257 melanoma
K-562 leukemia = test system: K-562 leukemia
HCT-15 colon = test system: HCT-15 colon
NCI-H226 lung = test system: NCI-H226 lung
COLO 205 colon = test system: COLO 205 colon
KM12 colon = test system: KM12 colon
SW-620 colon = test system: SW-620 colon
MDA-MB-435 = test system: MDA-MB-435
UACC-62 melanoma = test system: UACC-62 melanoma
SF-295 CNS = test system: SF-295 CNS
MOLT-4 leukemia = test system: MOLT-4 leukemia
HOP-92 NSCLC = test system: HOP-92 NSCLC
UO-31 renal = test system: UO-31 renal
CAKI-1 renal = test system: CAKI-1 renal
NCI-H522 lung = test system: NCI-H522 lung
IGROV1 ovarian = test system: IGROV1 ovarian
SK-MEL-5 melanoma = test system: SK-MEL-5 melanoma
RPMI-8226 leukemia = test system: RPMI-8226 leukemia
EKVX NSCLC = test system: EKVX NSCLC
SNB-19 CNS = test system: SNB-19 CNS
DU-145 prostate = test system: DU-145 prostate
SF-539 CNS = test system: SF-539 CNS
M14 melanoma = test system: M14 melanoma
SNB-75 CNS = test system: SNB-75 CNS
TK-10 renal = test system: TK-10 renal
T-47D breast = test system: T-47D breast
SK-MEL-28 melanoma = test system: SK-MEL-28 melanoma
BT-549 breast = test system: BT-549 breast
SR leukemia = test system: SR leukemia
MALME-3M melanoma = test system: MALME-3M melanoma
786-0 renal = test system: 786-0 renal
SK-MEL-2 melanoma = test system: SK-MEL-2 melanoma
OVCAR-8 ovarian = test system: OVCAR-8 ovarian
A549 NSCLC = test system: A549 NSCLC
HCT-116 colon = test system: HCT-116 colon
PC-3 prostate = test system: PC-3 prostate
SF-268 CNS = test system: SF-268 CNS
NCI-H460 lung = test system: NCI-H460 lung
OVCAR-3 ovarian = test system: OVCAR-3 ovarian

O=[N+]([O-])c1ccc(-c2nc(/C=N/N3CCCCC3)cs2)o1
TGI (MCF7 breast): > 100 µM | TGI (MDA-MB-231 breast): > 100 µM | TGI (U251 CNS): > 100 µM | TGI (SN12C renal): 68.1 µM | TGI (HS 578T breast): > 100 µM | TGI (HOP-62 NSCLC): > 100 µM | TGI (OVCAR-5 ovarian): > 100 µM | TGI (NCI-H23 lung): > 100 µM | TGI (HT29 colon): 57.1 µM | TGI (ACHN renal): > 100 µM | TGI (OVCAR-4 ovarian): > 100 µM | TGI (RXF 393 renal): > 100 µM | TGI (NCI/ADR-RES ovarian): > 100 µM | TGI (SK-OV-3 ovarian): > 100 µM | TGI (HL-60(TB) leukemia): > 100 µM | TGI (UACC-257 melanoma): 50.7 µM | TGI (K-562 leukemia): > 100 µM | TGI (HCT-15 colon): > 100 µM | TGI (NCI-H226 lung): > 100 µM | TGI (COLO 205 colon): > 100 µM | TGI (KM12 colon): > 100 µM | TGI (SW-620 colon): > 100 µM | TGI (MDA-MB-435): 62.6 µM | TGI (UACC-62 melanoma): > 100 µM | TGI (SF-295 CNS): > 100 µM | TGI (MOLT-4 leukemia): 67 µM | TGI (HOP-92 NSCLC): > 100 µM | TGI (UO-31 renal): > 100 µM | TGI (CAKI-1 renal): > 100 µM | TGI (NCI-H522 lung): > 100 µM | TGI (IGROV1 ovarian): > 100 µM | TGI (SK-MEL-5 melanoma): 59.5 µM | TGI (RPMI-8226 leukemia): 39.8 µM | TGI (EKVX NSCLC): > 100 µM | TGI (SNB-19 CNS): > 100 µM | TGI (DU-145 prostate): > 100 µM | TGI (SF-539 CNS): > 100 µM | TGI (M14 melanoma): > 100 µM | TGI (SNB-75 CNS): > 100 µM | TGI (TK-10 renal): > 100 µM | TGI (T-47D breast): > 100 µM | TGI (SK-MEL-28 melanoma): > 100 µM | TGI (BT-549 breast): > 100 µM | TGI (SR leukemia): 73 µM | TGI (MALME-3M melanoma): 76.6 µM | TGI (786-0 renal): > 100 µM | TGI (SK-MEL-2 melanoma): > 100 µM | TGI (OVCAR-8 ovarian): > 100 µM | TGI (A549 NSCLC): > 100 µM | TGI (HCT-116 colon): > 100 µM | TGI (PC-3 prostate): > 100 µM | TGI (SF-268 CNS): > 100 µM | TGI (NCI-H460 lung): > 100 µM | TGI (OVCAR-3 ovarian): 82.4 µM

From PubChem BioAssay (NCI)
